# Reference: patent US10111885B2, “Compositions and therapeutic methods for the treatment of complement-associated diseases” (Resverlogix Corp., priority 2015, dated 2018)
# Where two headings read alike, the source gives them in different places.
# Key:
# MBL2 mRNA [1] = assay: Complement gene mRNA expression, TaqMan real-time PCR, Huh-7 cells; format: cell-based; conditions: Homo sapiens; Huh-7, 48 h treatment; read-out: MBL2 (48 h) mRNA, half maximal inhibitory concentration (IC50)
# Source text: (§1) In this example, mRNA levels from cultured cells were quantitated. The assay can be used to determine the effect of compound(s) on regulating mRNA levels, including those compounds in the present invention. Complement genes are expressed at high endogenous levels, but their expression can also be stimulated with various cytokines in inflammatory conditions. Experiments in this example target both basal and inflammatory complement gene expression. Compound mediated changes in gene expression and resulting mRNA levels are presented in Tables 2, 3 and 4 as well as FIGS. 1, 2, 3 and 4 below.
# (§2) Huh-7 and HepG2 cells are liver-derived cell lines and are models for what can occur in the liver. Huh-7 cells (JCRB Cell Bank) were introduced to 96-well plates (^˜2.5×10^5 per well) in 100 μL DMEM containing 10% (v/v) FBS, 100 U/mL penicillin, 100 ug/mL streptomycin and 5 ug/mL plasmocin (all reagents from Gibco, except for the former, which was obtained from Invivogen). After 24 h, Huh-7 cells were treated with compounds in the same media formulation used for plating, and supplemented with 0.1% DMSO for the amount of time indicated in tables 2, 3, and 4. For select experiments, 24 h post-plating, cells were treated with cytokines and the compound of interest simultaneously, for a total treatment time of 48 h. Alternatively, 24 h after plating, cells were pre-treated with cytokines for 24 h before adding the compound of interest for 48 h. HepG2 cells (ATCC) were cultured in 96-well plates (^˜2.5×10^5 per well) in MEM containing 10% FBS, 1× non-essential amino acids, 1 mM sodium pyruvate, 2 mM L-glutamine, 100 U/mL penicillin, 100 ug/mL streptomycin and 5 ug/mL plasmocin. Serum amount was reduced to 0.5% for treatments with compound or cytokines. Timing of treatment of HepG2 cells with compounds and cytokines was as described for Huh-7 cells. Primary human hepatocytes (CellzDirect/Life Technologies) were plated in collagen coated 96-well plates at 70 000 cells/well, then overlaid with Matrigel™ as recommended by the supplier. Cells were treated with compounds of interest and/or cytokines for the indicated time points in the recommended media supplemented with 0.1% DMSO and 10% FBS (v/v). Cells were harvested by mRNA Catcher PLUS Kit (Life Technologies) followed by real-time PCR using the RNA UltraSense One-Step qRT-PCR System. The level of the mRNA of interest was measured by TaqMan real-time PCR relative to the endogenous control cyclophilin A in the same sample. […]
# (§3) Downregulation of expression of components of the complement cascade will result in reduced activity of the pathway and thus will constitute a positive result. […] Table 4 lists the maximum reduction in the indicated mRNA measured in primary human hepatocytes treated with compounds for up to 72 hours. […]
# C1S mRNA [2] = assay: as above; format: cell-based; conditions: Homo sapiens; Huh-7, 48 h treatment; read-out: C1S (48 h) mRNA, half maximal inhibitory concentration (IC50)
# Source text: as §1, §2, §3
# C3 mRNA = assay: as above; format: cell-based, human; conditions: for IC50: Homo sapiens
# Source text: as §1
# (§4) Huh-7 and HepG2 cells are liver-derived cell lines and are models for what can occur in the liver. Huh-7 cells (JCRB Cell Bank) were introduced to 96-well plates (^˜2.5×10^5 per well) in 100 μL DMEM containing 10% (v/v) FBS, 100 U/mL penicillin, 100 ug/mL streptomycin and 5 ug/mL plasmocin (all reagents from Gibco, except for the former, which was obtained from Invivogen). After 24 h, Huh-7 cells were treated with compounds in the same media formulation used for plating, and supplemented with 0.1% DMSO for the amount of time indicated in tables 2, 3, and 4. For select experiments, 24 h post-plating, cells were treated with cytokines and the compound of interest simultaneously, for a total treatment time of 48 h. Alternatively, 24 h after plating, cells were pre-treated with cytokines for 24 h before adding the compound of interest for 48 h. HepG2 cells (ATCC) were cultured in 96-well plates (^˜2.5×10^5 per well) in MEM containing 10% FBS, 1× non-essential amino acids, 1 mM sodium pyruvate, 2 mM L-glutamine, 100 U/mL penicillin, 100 ug/mL streptomycin and 5 ug/mL plasmocin. Serum amount was reduced to 0.5% for treatments with compound or cytokines. Timing of treatment of HepG2 cells with compounds and cytokines was as described for Huh-7 cells. Primary human hepatocytes (CellzDirect/Life Technologies) were plated in collagen coated 96-well plates at 70 000 cells/well, then overlaid with Matrigel™ as recommended by the supplier. Cells were treated with compounds of interest and/or cytokines for the indicated time points in the recommended media supplemented with 0.1% DMSO and 10% FBS (v/v). Cells were harvested by mRNA Catcher PLUS Kit (Life Technologies) followed by real-time PCR using the RNA UltraSense One-Step qRT-PCR System. The level of the mRNA of interest was measured by TaqMan real-time PCR relative to the endogenous control cyclophilin A in the same sample. Data were acquired using the ViiA-7 Real Time PCR System (Applied Biosystems).
# (§5) Downregulation of expression of components of the complement cascade will result in reduced activity of the pathway and thus will constitute a positive result. Tables 2 and 3 list the concentration of compounds at which the level of the indicated mRNA is reduced by 50%, as well as the duration of treatment with compound. Table 4 lists the maximum reduction in the indicated mRNA measured in primary human hepatocytes treated with compounds for up to 72 hours. FIGS. 1, 2, 3 and 4 show effects of compounds on cytokine-induced (i.e. inflammatory) expression of complement genes in Huh-7 cells and HepG2 cells.
# C4a/C4b mRNA = assay: as above; format: cell-based, human; conditions: for IC50: Homo sapiens
# Source text: as §1, §4, §5
# C5 mRNA = assay: as above; format: cell-based, human; conditions: for IC50: Homo sapiens
# Source text: as §1, §4, §5
# MBL2 mRNA [3] = assay: Complement gene mRNA expression, TaqMan real-time PCR, HepG2 cells; format: cell-based; conditions: Homo sapiens; HepG2, 48 h treatment; read-out: MBL2 (48 h) mRNA, half maximal inhibitory concentration (IC50)
# Source text: as §1, §2, §3
# C1S mRNA [4] = assay: as above; format: cell-based; conditions: Homo sapiens; HepG2, 48 h treatment; read-out: C1S (48 h) mRNA, half maximal inhibitory concentration (IC50)
# Source text: as §1, §2, §3
# [5] = system: Mannose-binding protein C; assay: SOMAscan protein quantitation in clinical samples, ASSURE trial; format: in vivo, human; conditions: 200 mg/day, week 26 vs. baseline
# Protocol: (§6) In this example, plasma samples from human subjects treated with placebo or RVX000222 are analyzed by the SOMAscan™ assay (SomaLogic). The method can be used to determine the effect of compounds, including those in the present invention, on the abundance of proteins, including complement components, in clinical samples. […] Using the SOMAscan™ technology, each sample is analyzed for the relative presence and amount of 1,310 different proteins. The changes in values for each protein analyte are calculated versus the baseline measure, and statistically significant (p<0.05) values are reported (Table 10). Downregulation of expression of components of the complement cascade will result in reduced activity of the pathway and thus will constitute a positive result.
# Complement C3b = assay: as above; format: in vivo, human; conditions: 200 mg/day, week 26 vs. baseline
# Protocol: as §6
# C5a anaphylatoxin = assay: as above; format: in vivo, human; conditions: 200 mg/day, week 26 vs. baseline
# Protocol: as §6
# Complement C2 = assay: as above; format: in vivo, human; conditions: 200 mg/day, week 26 vs. baseline
# Protocol: as §6
# Complement factor H = assay: as above; format: in vivo, human; conditions: 200 mg/day, week 26 vs. baseline
# Protocol: as §6
# Complement component C8 = assay: as above; format: in vivo, human; conditions: 200 mg/day, week 26 vs. baseline
# Protocol: as §6
# Complement factor B = assay: as above; format: in vivo, human; conditions: 200 mg/day, week 26 vs. baseline
# Protocol: as §6
# C-reactive protein = assay: as above; format: in vivo, human; conditions: 200 mg/day, week 26 vs. baseline
# Protocol: as §6
# Complement C5 = assay: as above; format: in vivo, human; conditions: 200 mg/day, week 26 vs. baseline
# Protocol: as §6
# [6] = system: Complement C5b-C6 complex; assay: as above; format: in vivo, human; conditions: 200 mg/day, week 26 vs. baseline
# Protocol: as §6
# Complement component C6 = assay: as above; format: in vivo, human; conditions: 200 mg/day, week 26 vs. baseline
# Protocol: as §6
# Complement component C9 = assay: as above; format: in vivo, human; conditions: 200 mg/day, week 26 vs. baseline
# Protocol: as §6
# [7] = Huh-7, 48 h treatment, read-out: C3 (48 h) mRNA, half maximal inhibitory concentration (IC50)
# [8] = read-out: C4a/C4b (72 h) mRNA, half maximal inhibitory concentration (IC50), Huh-7, 72 h treatment
# [9] = read-out: C5 (72 h) mRNA, half maximal inhibitory concentration (IC50), Huh-7, 72 h treatment
# [10] = Huh-7 pre-treated with cytokines
# [11] = Huh-7 treated simultaneously with cytokines
smiles,measurement,setting,value
"Cc1sc2c(c1C)C(c1ccc(Cl)cc1)=N[C@@H](CC(=O)OC(C)(C)C)c1nnc(C)n1-2 [JQ1, (S)-tert-butyl 2-(4-(4-chlorophenyl)-2,3,9-trimethyl-6H-thieno[3,2-f][1,2,4]triazolo[4,3-a][1,4]diazepin-6-yl)acetate, reference compound]",IC50,MBL2 mRNA [1],160 nM
same,IC50,C1S mRNA [2],300 nM
same,IC50,"C3 mRNA; Huh-7, 48 h treatment (Table 3), read-out: mRNA expression in Huh-7 cells: IC50 (uM), C3",0.18 µM
same,IC50,C3 mRNA; [7],0.2 µM
same,IC50,C4a/C4b mRNA; [8],0.07 µM
same,IC50,"C4a/C4b mRNA; Huh-7, 48 h treatment (Table 3), read-out: mRNA expression in Huh-7 cells: IC50 (uM), C4",0.065 µM
same,IC50,C5 mRNA; [9],270 nM
same,IC50,MBL2 mRNA [3],30 nM
same,IC50,C1S mRNA [4],120 nM
"COc1cc(OC)c2c(=O)[nH]c(-c3cc(C)c(OCCO)c(C)c3)nc2c1 [RVX000222, 2-(4-(2-hydroxyethoxy)-3,5-dimethylphenyl)-5,7-dimethoxyquinazolin-4(3H)-one]",IC50,MBL2 mRNA [1],16300 nM
same,IC50,C1S mRNA [2],18900 nM
same,IC50,C3 mRNA; [7],1.9 µM
same,expression of complement component 3 at the mRNA level (FIG. 3),C3 mRNA; [10],reduces expression
same,expression of complement component 3 at the mRNA level (FIG. 1),C3 mRNA; [11],reduces expression
same,IC50,C4a/C4b mRNA; [8],5.4 µM
same,IC50,"C4a/C4b mRNA; Huh-7, 48 h treatment, read-out: C4a/C4b (48 h) mRNA, half maximal inhibitory concentration (IC50)",6.3 µM
same,expression of complement component 4 at the mRNA level (FIG. 3),C4a/C4b mRNA; [10],reduces expression
same,expression of complement component 4 at the mRNA level (FIG. 1),C4a/C4b mRNA; [11],reduces expression
same,IC50,C5 mRNA; [9],21800 nM
same,IC50,"C5 mRNA; Huh-7, 48 h treatment, read-out: C5 (48 h) mRNA, half maximal inhibitory concentration (IC50)",> 30000 nM
same,expression of complement component 5 at the mRNA level (FIG. 3),C5 mRNA; [10],reduces expression
same,expression of complement component 5 at the mRNA level (FIG. 1),C5 mRNA; [11],reduces expression
same,IC50,MBL2 mRNA [3],3880 nM
same,IC50,C1S mRNA [4],9560 nM
same,Mannose-binding protein C (MBL2) % change vs. baseline,[5],−14.6%
same,Complement C3b (C3) % change vs. baseline,Complement C3b,−52.7%
same,C5a anaphylatoxin (C5) % change vs. baseline,C5a anaphylatoxin,−28.7%
same,Complement C2 (C2) % change vs. baseline,Complement C2,−6.7%
same,Complement factor H (CFH) % change vs. baseline,Complement factor H,−5.6%
same,Complement component C8 (C8) % change vs. baseline,Complement component C8,−10.1%
same,Complement factor B (CFB) % change vs. baseline,Complement factor B,−6.8%
same,C-reactive protein (CRP) % change vs. baseline,C-reactive protein,−43.6%
same,Complement C5 (C5) % change vs. baseline,Complement C5,−11.7%
same,Complement C5b-C6 complex (C5 C6) % change vs. baseline,[6],−12.0%
same,Complement component C6 (C6) % change vs. baseline,Complement component C6,−14.3%
same,Complement component C9 (C9) % change vs. baseline,Complement component C9,−18.3%
